Like-named read-outs stand apart in the source and are kept apart here.
How the values were obtained:
T7 RNA polymerase = T7 RNA polymerase (Escherichia phage T7, UniProt P00573); conditions: 1 mM substrate, 1 mM NTPs, template DNA containing Ds, 37° C., 3 hours; FIG. 49
Description: More specifically, experimental procedures as shown below were used. […] After reaction at 37° C. for 3 hours, 10 M urea (20 μL) was added to this solution to stop the reaction.

[1] = target: Klenow fragment lacking 3′-5′ exonuclease activity (Escherichia coli, UniProt P00582, D355A/E357A); conditions: template DNA (55-mer) containing Ds, 10 μM substrate, 37° C., 5 minutes; FIG. 48
Klenow fragment lacking 3′-5′ exonuclease activity, sequence (P00582 324-928 D355A/E357A): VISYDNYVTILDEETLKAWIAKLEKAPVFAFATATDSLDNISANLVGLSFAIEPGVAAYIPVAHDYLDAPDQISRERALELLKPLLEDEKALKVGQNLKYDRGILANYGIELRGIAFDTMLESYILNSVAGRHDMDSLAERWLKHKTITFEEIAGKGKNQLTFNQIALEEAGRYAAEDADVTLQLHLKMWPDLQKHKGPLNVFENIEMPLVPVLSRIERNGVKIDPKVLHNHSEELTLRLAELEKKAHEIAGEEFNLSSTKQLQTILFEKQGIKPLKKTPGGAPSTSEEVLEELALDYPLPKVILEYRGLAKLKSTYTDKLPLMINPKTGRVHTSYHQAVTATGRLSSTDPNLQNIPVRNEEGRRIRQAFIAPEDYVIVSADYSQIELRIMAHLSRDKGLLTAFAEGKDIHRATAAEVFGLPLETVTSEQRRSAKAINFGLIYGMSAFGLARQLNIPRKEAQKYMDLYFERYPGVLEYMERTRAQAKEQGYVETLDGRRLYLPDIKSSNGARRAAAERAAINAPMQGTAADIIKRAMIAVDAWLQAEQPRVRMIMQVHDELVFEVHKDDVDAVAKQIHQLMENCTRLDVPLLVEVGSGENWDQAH
Description: More specifically, experimental procedures as shown below were used. […] The reaction was performed using 200 nM Template-Primer, 100 μM or 200 μM dNTPs (N=A, G, C, T), 10 μM NH2-hx-dPnTP or FAM-hx-dPnTP, and 0.1 U/μl Klenow fragment (GE Health Care) in 50 mM Tris-HCl (pH 7.5), 10 mM MgCl2, 1 mM DTT, 0.05 mg/ml BSA. After reaction at 37° C. for 5 minutes, 10 M urea (20 μl) was added to this solution to stop the reaction. […] Bands of the reaction products were detected with a fluorescence image analyzer (Molecular Imager, Bio-Rad, FAM detection mode).

[2] = target: Klenow fragment (KF exo+ / KF exo−) (Escherichia coli, UniProt P00582); conditions: dPaTP and natural substrates in the presence of the named substrate (0.5 or 1 molar equivalent of dPaTP); FIG. 2d
Klenow fragment (KF exo+ / KF exo−) (Escherichia coli, UniProt P00582), sequence (P00582 324-928): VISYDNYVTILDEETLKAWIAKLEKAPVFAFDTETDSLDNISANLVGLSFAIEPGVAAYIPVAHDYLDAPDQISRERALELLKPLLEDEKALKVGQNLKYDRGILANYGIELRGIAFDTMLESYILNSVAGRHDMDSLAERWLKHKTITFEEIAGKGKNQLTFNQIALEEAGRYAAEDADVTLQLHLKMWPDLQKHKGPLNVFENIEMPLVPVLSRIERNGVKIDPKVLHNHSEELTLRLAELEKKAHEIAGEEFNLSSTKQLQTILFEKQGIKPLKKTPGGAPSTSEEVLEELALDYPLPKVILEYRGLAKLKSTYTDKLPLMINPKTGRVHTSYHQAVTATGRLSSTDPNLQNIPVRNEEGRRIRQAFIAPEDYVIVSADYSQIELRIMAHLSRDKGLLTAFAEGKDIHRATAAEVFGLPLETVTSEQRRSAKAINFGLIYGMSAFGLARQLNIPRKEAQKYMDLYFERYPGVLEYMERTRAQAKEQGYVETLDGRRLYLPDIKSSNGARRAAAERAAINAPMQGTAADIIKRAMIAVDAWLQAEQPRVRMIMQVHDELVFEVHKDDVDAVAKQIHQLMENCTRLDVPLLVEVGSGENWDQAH
Description: (§1) [FIG. 2d] FIGS. 2a to 2e show single nucleotide insertion and primer extension experiments with an unnatural base pair system based on Ds-Pa base pairing.
(§2) [FIG. 2e] FIGS. 2a to 2e show single nucleotide insertion and primer extension experiments with an unnatural base pair system based on Ds-Pa base pairing.
(§3) A 5′-^32P-labeled primer (23-mer) and template DNA (35-mer) were annealed into duplex form in 20 mM Tris-HCl (pH 7.5) buffer containing 14 mM MgCl2 and 0.2 mM DTT. The duplex solution (400 nM, 5 μl) was mixed with each 5× dNTP solution (2 μl) on ice, followed by addition of 3 μl enzyme solution containing KF exo^− (1 unit) or KF exo^+ (1 unit) (TAKARA) to start the reaction. After the reaction solution was incubated at 37° C. for 3 or 5 minutes, a dye solution (10 μl) containing 89 mM Tris-borate, 2 mM EDTA, 10 M urea and 0.05% BPB was added to stop the reaction. […] The products on the gel were analyzed with a bio-imaging analyzer (model BAS2500, Fuji).

[3] = system: Klenow fragment (KF exo+ / KF exo−); conditions: dDsTPN opposite template Pa, dATPN opposite template T; FIG. 2e, Lanes 2 and 14
Description: as §1, §2, §3

[4] = target: T1, Klenow fragment lacking exonuclease activity (KF exo−) (Escherichia coli, UniProt P00582, D355A/E357A); format: biochemical, E. coli; conditions: for Efficiency (Vmax/KM) / Km / Vmax: 37° C.
T1 construct: enzyme solution of the Klenow fragment lacking exonuclease activity (KF exo^−, Amersham USB); purchased Amersham USB
T1 sequence (P00582 324-928 D355A/E357A): as the sequence (P00582 324-928 D355A/E357A) above
Description: The single nucleotide insertion experiment was performed as described in documents (Non-patent Documents 30-32). A primer (20-mer) labeled with 6-carboxylfluorescein at the 5′-end was annealed with template DNA (35-mer) by heating at 95° C. and slow cooling to 4° C. in 100 mM Tris-HCl (pH 7.5) buffer containing 20 mM MgCl2, 2 mM DTT and 0.1 mg/ml bovine serum albumin. The primer-template duplex solution (10 μM, 5 μl) was mixed with 2 μl enzyme solution of the Klenow fragment lacking exonuclease activity (KF exo^−, Amersham USB). After the mixture was incubated for 2 minutes, each dNTP solution (3 μl) was added to this solution to start the reaction at 37° C. The amount of the enzyme used (5-50 nM), the reaction time (1-35 minutes) and the gradient concentration of each dNTP (0.3-1500 μM) were adjusted to ensure conditions giving 25% or less products. The reaction was stopped with 10 μl stop solution (95% formamide and 20 mM EDTA), and the mixture was immediately heated at 75° C. for 3 minutes. The diluted products were analyzed in an automated ABI377 DNA sequencer equipped with GeneScan software (version 3.0) (Non-patent Document 32). The relative velocity (v0) was calculated by dividing the extent of reaction by the reaction time, and then normalized to the enzyme concentration (20 nM) for the various enzyme concentrations used. Kinetic parameters (KM and Vmax) were obtained from Hanes-Woolf plots of [dNTP]/v0 against [dNTP].
Each parameter was averaged from 3 to 8 data sets.

T7 RNA polymerase, sequence (P00573 whole entry): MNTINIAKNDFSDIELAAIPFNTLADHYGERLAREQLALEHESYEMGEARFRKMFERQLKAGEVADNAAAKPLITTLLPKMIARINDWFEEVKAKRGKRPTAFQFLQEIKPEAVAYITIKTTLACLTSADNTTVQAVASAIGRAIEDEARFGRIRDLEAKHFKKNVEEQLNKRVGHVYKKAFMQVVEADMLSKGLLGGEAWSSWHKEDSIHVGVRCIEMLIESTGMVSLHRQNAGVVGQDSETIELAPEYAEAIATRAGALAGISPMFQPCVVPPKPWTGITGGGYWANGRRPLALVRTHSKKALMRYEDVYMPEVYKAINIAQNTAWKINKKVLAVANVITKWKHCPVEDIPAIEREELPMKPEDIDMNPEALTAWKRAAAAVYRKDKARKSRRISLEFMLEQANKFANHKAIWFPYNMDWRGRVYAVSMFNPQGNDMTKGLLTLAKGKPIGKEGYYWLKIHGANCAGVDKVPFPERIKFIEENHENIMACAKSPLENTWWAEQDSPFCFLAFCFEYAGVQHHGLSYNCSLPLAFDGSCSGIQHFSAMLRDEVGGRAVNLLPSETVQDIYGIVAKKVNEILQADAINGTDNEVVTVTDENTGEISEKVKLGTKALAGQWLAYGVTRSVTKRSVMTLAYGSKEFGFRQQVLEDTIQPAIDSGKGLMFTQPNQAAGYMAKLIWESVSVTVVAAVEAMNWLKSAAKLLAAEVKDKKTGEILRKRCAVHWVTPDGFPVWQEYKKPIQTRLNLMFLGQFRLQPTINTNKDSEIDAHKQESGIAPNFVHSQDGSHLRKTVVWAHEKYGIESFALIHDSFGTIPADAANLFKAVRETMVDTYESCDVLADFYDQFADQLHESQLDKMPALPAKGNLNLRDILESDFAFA

In the case of O=Cc1cc(C#CCNC(=O)CCCCCNC(=O)c2ccc3c(c2)C(=O)OC32c3ccc(O)cc3Oc3cc(O)ccc32)cn1[C@@H]1O[C@H](COP(=O)(O)OP(=O)(O)OP(=O)(O)O)[C@@H](O)[C@H]1O [FAM-hx-PaTP, 1-(β-D-Ribofuranosyl)-4-[3-(6-(fluorescein-5-carboxamido)hexanamido)-1-propynyl]pyrrole-2-carbaldehyde 5′-triphosphate], the “transcription efficiency compared to control with natural substrates alone” value (T7 RNA polymerase) is reported as 14%.

O=C(CCCCCNC(=O)c1ccc2c(c1)C(=O)OC21c2ccc(O)cc2Oc2cc(O)ccc21)NCC#Cc1cc([N+](=O)[O-])n([C@H]2C[C@H](O)[C@@H](COP(=O)(O)OP(=O)(O)OP(=O)(O)O)O2)c1 [FAM-hx-dPnTP, 1-(2-Deoxy-β-D-ribofuranosyl)-4-[3-[6-(fluorescein-5-carboxamido)hexanamido]-1-propynyl]-2-nitropyrrole 5′-triphosphate] was tested, and the “incorporation into DNA through primer extension” value [1] was “incorporated into DNA opposite Ds in the template DNA”.

NCCCCCC(=O)NCC#Cc1cc([N+](=O)[O-])n([C@H]2C[C@H](O)[C@@H](COP(=O)(O)OP(=O)(O)OP(=O)(O)O)O2)c1 [NH2-hx-dPnTP] was tested, and the “incorporation into DNA through primer extension” value [1] was “incorporated into DNA opposite Ds in the template DNA”.

In the case of CN(C)c1ccc2c(c1)Oc1cc(N(C)C)ccc1C21OC(=O)c2cc(C(=O)NCCCCCC(=O)NCC#Cc3cc(C=O)n([C@@H]4O[C@H](COP(=O)(O)OP(=O)(O)OP(=O)(O)O)[C@@H](O)[C@H]4O)c3)ccc21 [TAMRA-hx-PaTP, 1-(β-D-Ribofuranosyl)-4-[3-(6-(tetramethylrhodamine-5-carboxamido)hexanamido)-1-propynyl]pyrrole-2-carbaldehyde 5′-triphosphate], the “transcription efficiency compared to control with natural substrates alone” value (T7 RNA polymerase) is reported as 10%.

With NP(=O)(O)OP(=O)(O)OP(=O)(O)OC[C@H]1O[C@@H](n2cnc3c(-c4cccs4)ccnc32)C[C@@H]1O [dDsTPN, 7-(2-Thienyl)-3-(2-deoxy-β-D-ribofuranosyl)-3H-imidazo[4,5-b]pyridine 5′-γ-amidotriphosphate] the “primer extension with KF exo+ on Ds-containing template” value [2] was “proceeded without being inhibited”, the “primer extension after incorporation of the substrate” value [3] was “proceeded efficiently” and the “incorporation efficiency opposite template Pa relative to that of dATPN opposite template Pa” value ([4]; KF exo−, template Pa) was 37 fold. The “Efficiency (Vmax/KM)” value ([4]; template (N) = A, temp35N-2) was 1.9 × 10^3 % min^−1M^−1, the Km ([4]; template (N) = A, temp35N-2) was 270 µM and the Vmax ([4]; template (N) = A, temp35N-2) was 0.52 % min^−1. The “Efficiency (Vmax/KM)” value ([4]; template (N) = C, temp35N-2) was 1.5 × 10^3 % min^−1M^−1, the Km ([4]; template (N) = C, temp35N-2) was 440 µM and the Vmax ([4]; template (N) = C, temp35N-2) was 0.64 % min^−1. For the same compound, the “Efficiency (Vmax/KM)” value ([4]; template (N) = Ds, temp35N-1) was 9.9 × 10^3 % min^−1M^−1, the Km ([4]; template (N) = Ds, temp35N-1) was 79 µM and the Vmax ([4]; template (N) = Ds, temp35N-1) was 0.78 % min^−1. The “Efficiency (Vmax/KM)” value ([4]; template (N) = G, temp35N-2) was 1.9 × 10^3 % min^−1M^−1, the Km ([4]; template (N) = G, temp35N-2) was 300 µM and the Vmax ([4]; template (N) = G, temp35N-2) was 0.58 % min^−1. For the same compound, the “Efficiency (Vmax/KM)” value ([4]; template (N) = Pa, temp35N-2) was 6.7 × 10^4 % min^−1M^−1, the Km ([4]; template (N) = Pa, temp35N-2) was 180 µM and the Vmax ([4]; template (N) = Pa, temp35N-2) was 12 % min^−1. The “Efficiency (Vmax/KM)” value ([4]; template (N) = Pa′, temp35N-2) was 5.7 × 10^4 % min^−1M^−1, the Km ([4]; template (N) = Pa′, temp35N-2) was 230 µM and the Vmax ([4]; template (N) = Pa′, temp35N-2) was 13 % min^−1. The “Efficiency (Vmax/KM)” value ([4]; template (N) = T, temp35N-2) was 3.5 × 10^3 % min^−1M^−1, the Km ([4]; template (N) = T, temp35N-2) was 480 µM and the Vmax ([4]; template (N) = T, temp35N-2) was 1.7 % min^−1.

— patent US8030478B2, “Method for nucleic acid replication and novel artificial base pairs” (priority 2005, dated 2011)
